Laboratory results published in US8183213B2, “Combination therapy comprising glucose reabsorption inhibitors and retinoid-X receptor modulators” (Ortho McNeil Pharmaceutical, Inc., priority 2001, dated 2012).
Like-named read-outs stand apart in the source and are kept apart here. One block for each compound: values may come before it.

Experiments:
SGLT1 = target: T1, SGLT1 (Homo sapiens, UniProt P13866); conditions: Kidney (S1, S3), cited from earlier work; for Km: for D-glucose
T1 sequence (P13866 1-664): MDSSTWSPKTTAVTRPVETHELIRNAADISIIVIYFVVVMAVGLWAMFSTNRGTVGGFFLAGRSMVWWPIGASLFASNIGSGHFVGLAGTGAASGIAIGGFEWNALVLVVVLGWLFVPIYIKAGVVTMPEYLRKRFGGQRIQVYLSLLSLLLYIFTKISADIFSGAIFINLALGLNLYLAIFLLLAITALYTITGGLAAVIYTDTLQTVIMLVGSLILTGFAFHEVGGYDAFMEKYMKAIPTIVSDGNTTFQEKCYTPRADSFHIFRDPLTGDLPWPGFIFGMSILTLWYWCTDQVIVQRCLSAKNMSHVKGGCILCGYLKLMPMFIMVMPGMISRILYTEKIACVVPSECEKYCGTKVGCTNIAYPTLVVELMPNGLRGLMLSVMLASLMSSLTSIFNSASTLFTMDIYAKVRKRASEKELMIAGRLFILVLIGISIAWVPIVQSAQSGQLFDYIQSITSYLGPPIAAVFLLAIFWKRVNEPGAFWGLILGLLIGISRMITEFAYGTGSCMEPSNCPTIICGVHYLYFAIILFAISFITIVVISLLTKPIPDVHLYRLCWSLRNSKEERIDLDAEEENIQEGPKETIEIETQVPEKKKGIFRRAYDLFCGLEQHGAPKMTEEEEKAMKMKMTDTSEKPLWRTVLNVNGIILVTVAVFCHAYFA

SGLT2 (SAAT1) = conditions: Kidney (S3), cited from earlier work; for Km: for D-glucose
db/db mice [1] = assay: Fed plasma triglycerides after oral dosing of MX-6054 +/- T-1095 (Example 5); format: in vivo; conditions: ± SEM
Method: (§1) To examine the effect of T-1095 in combination with a RXR agonist, male db/db mice (7 weeks of age/Jackson Labs, ME) were treated daily for 11 days with vehicle (0.5% methylcellulose), an RXR agonist such as MX-6054 (0.1 mg/kg-10 mg/kg), T-1095 (100 mg/kg), or MX-6054 plus T-1095. Mice (n=8 animals/group) received the test compounds or vehicle by oral gavage in a volume of 10 ml/kg of body weight. Body weight was recorded on day 1, prior to dosing, and days 4, 8 and 11. Two hours after the final dose (day 11), mice were weighed and anesthetized with CO2/O2 (70:30). Mice were then bled by retro-orbital sinus puncture into 2 mL heparinized polypropylene tubes on ice. Livers were excised, weighed and frozen.
(§2) Plasma samples were then assayed for glucose and triglycerides using Trinder reagent (Sigma Diagnostics) and GPO-Trinder (Sigma Diagnostics).

[2] = Body weight after oral dosing of MX-6054 +/- T-1095 (Example 5); format: in vivo; conditions: oral dosing (title: 35 day), db/db mice
Method: To examine the effect of T-1095 in combination with a RXR agonist, male db/db mice (7 weeks of age/Jackson Labs, […]), an RXR agonist such as MX-6054 (0.1 mg/kg-10 mg/kg), T-1095 (100 mg/kg), or MX-6054 plus T-1095. Mice (n=8 animals/group) received the test compounds or vehicle by oral gavage in a volume of 10 ml/kg of body weight. […] […] Mice were then bled by retro-orbital sinus puncture into 2 mL heparinized polypropylene tubes on ice. Livers were excised, weighed and frozen.

db/db mice [3] = assay: Fed plasma glucose after oral dosing of MX-6054 +/- T-1095 (Example 5); format: in vivo; conditions: ± SEM
Method: as §1, §2

[4] = Liver weight after oral dosing of MX-6054 +/- T-1095 (Example 5); format: in vivo; conditions: db/db mice; for liver weight (title: Effects on body and liver weights): oral dosing (title: 35 day), in g (unit assumed)
SGLT in the kidney = conditions: cited from earlier work
SGLT-2 in the kidney = target: T2, SGLT-2 in the kidney (Homo sapiens, UniProt P31639); conditions: compared with T-1095; cited from earlier work
T2 sequence (P31639 1-672): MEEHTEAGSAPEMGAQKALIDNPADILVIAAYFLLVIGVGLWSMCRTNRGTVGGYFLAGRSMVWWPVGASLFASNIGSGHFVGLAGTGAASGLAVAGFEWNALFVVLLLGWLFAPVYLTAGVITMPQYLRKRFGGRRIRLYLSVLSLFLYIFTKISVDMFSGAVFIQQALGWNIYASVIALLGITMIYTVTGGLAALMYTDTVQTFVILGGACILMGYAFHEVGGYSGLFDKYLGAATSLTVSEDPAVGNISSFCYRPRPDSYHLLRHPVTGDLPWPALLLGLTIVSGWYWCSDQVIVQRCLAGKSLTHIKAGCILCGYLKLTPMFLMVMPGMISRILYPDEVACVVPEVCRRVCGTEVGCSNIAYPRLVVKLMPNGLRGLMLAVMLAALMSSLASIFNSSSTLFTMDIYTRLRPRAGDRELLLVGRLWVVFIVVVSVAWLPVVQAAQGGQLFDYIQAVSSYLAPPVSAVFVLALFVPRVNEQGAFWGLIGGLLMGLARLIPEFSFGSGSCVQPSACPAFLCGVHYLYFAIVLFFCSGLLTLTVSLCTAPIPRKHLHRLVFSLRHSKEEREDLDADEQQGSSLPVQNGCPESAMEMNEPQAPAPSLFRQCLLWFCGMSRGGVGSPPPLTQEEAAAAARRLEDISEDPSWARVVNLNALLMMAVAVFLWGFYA

[5] = system: diabetic rodent models (STZ-induced diabetic rat, yellow KK mice, db/db mice, Zucker Diabetic Fatty rats and GK rats); conditions: cited from earlier work
[6] = system: renal tubular glucose reabsorption; conditions: subcutaneous daily administration; cited from earlier work
[7] = system: Na^+-glucose co-transporters located in chorionic membrane of the intestine and the kidney; conditions: cited from earlier work
[8] = 0.1 mpk MX-6054, 11 day oral dosing
[9] = 0.3 mpk MX-6054, 11 day oral dosing
[10] = 1 mpk MX-6054, 11 day oral dosing
[11] = 3 mpk MX-6054, 11 day oral dosing
[12] = 10 mpk MX-6054, 11 day oral dosing
[13] = 100 mpk T-1095, 11 day oral dosing

Compound: O=C[C@H](O)[C@@H](O)[C@H](O)[C@H](O)CO [D-glucose]
Km (SGLT1; read-out: Km In vivo): 300 µM
Km (SGLT1; read-out: Km in vitro): 390 µM
TmG in vitro (Maximal transport rate) (SGLT1): 7.9 pmol/min/mm
Km (SGLT2 (SAAT1); read-out: Km In vivo): 6000 µM
Km (SGLT2 (SAAT1); read-out: Km in vitro): 1640 µM
TmG in vitro (Maximal transport rate) (SGLT2 (SAAT1)): 83 pmol/min/mm

Compound: Cc1cc2c(cc1-c1cc(/C=C3\SC(=O)NC3=O)ccc1OC(F)(F)F)C(C)(C)CCC2(C)C [MX-6054, 2,4-thiazolidinedione, 5-[[3-(5,6,7,8-tetrahydro-3,5,5,8,8-pentamethyl-2-naphthalenyl)-4-(trifluoromethoxy)phenyl]methylene]-, (5Z)-]
Triglycerides (db/db mice [1]; [8]): 260 ± 24 mg/dL
Triglycerides (db/db mice [1]; [9]): 262 ± 25 mg/dL
Triglycerides (db/db mice [1]; [10]): 259 ± 28 mg/dL
Triglycerides (db/db mice [1]; [11]): 206 ± 24 mg/dL
Triglycerides (db/db mice [1]; [12]): 189 ± 11 mg/dL
body weight (title: Effects on body and liver weights) ([2]; 0.1 mpk MX-6054): −0.7 ± 0.7
body weight (title: Effects on body and liver weights) ([2]; 0.3 mpk MX-6054): 0.2 ± 0.4
body weight (title: Effects on body and liver weights) ([2]; 1 mpk MX-6054): 0.6 ± 0.6
body weight (title: Effects on body and liver weights) ([2]; 3 mpk MX-6054): −0.8 ± 1.3
body weight (title: Effects on body and liver weights) ([2]; 10 mpk MX-6054): 2.5 ± 1.1
Glucose (db/db mice [3]; [8]): 357 ± 46 mg/dL
Glucose (db/db mice [3]; [9]): 342 ± 41 mg/dL
Glucose (db/db mice [3]; [10]): 406 ± 57 mg/dL
Glucose (db/db mice [3]; [11]): 255 ± 42 mg/dL
Glucose (db/db mice [3]; [12]): 224 ± 13 mg/dL
liver weight (title: Effects on body and liver weights) ([4]; 0.1 mpk MX-6054): 1.76 ± 0.11
liver weight (title: Effects on body and liver weights) ([4]; 0.3 mpk MX-6054): 1.93 ± 0.09
liver weight (title: Effects on body and liver weights) ([4]; 1 mpk MX-6054): 1.98 ± 0.09
liver weight (title: Effects on body and liver weights) ([4]; 3 mpk MX-6054): 1.89 ± 0.09
liver weight (title: Effects on body and liver weights) ([4]; 10 mpk MX-6054): 2.38 ± 0.16
liver weight, effect of treatment in words ([4]; treatment with MX-6054): significant increase

Compound: Cc1cc(O)c(C(=O)CCc2ccc3occc3c2)c(OC2OC(CO)C(O)C(O)C2O)c1 (centres unmarked) [T-1095A]
inhibition of SGLT in the kidney (SGLT in the kidney): selective and potent inhibitor
substrate for the inhibition of SGLT-2 in the kidney (SGLT-2 in the kidney): better substrate

liver weight (title: Effects on body and liver weights) ([4]; 100 mpk T-1095): 1.64 ± 0.07
MX-6054-induced increase in liver weight ([4]; co-administration of T-1095 with MX-6054): prevented
Compound: COC(=O)OCC1OC(Oc2cc(C)cc(O)c2C(=O)CCc2ccc3occc3c2)C(O)C(O)C1O (centres unmarked) [T-1095]
Triglycerides (db/db mice [1]; [13]): 196 ± 11 mg/dL
body weight (title: Effects on body and liver weights) ([2]; 100 mpk T-1095): 0.7 ± 0.3
Glucose (db/db mice [3]; [13]): 201 ± 9 mg/dL
adding weight, infection in the urinary tracts, electrolyte imbalance in plasma, changes in food intake, acute hypoglycemic shock, pathological changes in the kidney ([5]; during treatment with T-1095): no observed sign
oral glucose tolerance test and hyperinsulinemic euglycemic clamp studies ([5]; in vivo, po): improvement of glucose tolerance and the reduction of insulin resistance
elevated blood glucose levels ([5]; oral administration, rodent models of IDDM and NIDDM): suppress elevated blood glucose levels
fed and fasting blood glucose levels and HbA1c ([5]; treatment for 3 weeks to 6 months, diabetic rodent models): reduced
hyperinsulinemia, hypertriglyceridemia, and the development of microalbuminuria ([5]; yellow KK mice and other diabetic mice models): decrease

Compound: O=C(CCc1ccc(O)cc1)c1c(O)cc(O)cc1O[C@@H]1O[C@H](CO)[C@@H](O)[C@H](O)[C@H]1O [phlorizin]
glucose level in a plasma [6]: controlled at a normal level for a long time
Na^+-glucose co-transporter activity [7]: inhibits
